# Data taken from patent US20020137929A1, “1 - (3-heterocyclylphenyl) isothiourea, -isourea, -guanidine and -amidine herbicidal agents” (Intellectual Property Department, BASF Aktiengesellschaft, priority 1998, published 2002).
# Legend:
# [1] = tested on: GLXMAW (Soybean, Williams); test: Postemergence herbicidal evaluation; assay type: in vivo, Glycine max, (L.) Merr. cv Williams; conditions: postemergence
# Method in brief: (§1)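 Visual 0–9 rating versus control (stand, vigor, malformation, size, chlorosis, overall appearance), taken four to five weeks post-spray. Two-week-old seedlings received roughly 0.0156–0.500 kg/ha active in acetone/water (50/50) with 0.5% TWEEN 20 via nozzle at 40 psi.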
# AMBEL (Ragweed, Common) = test: Postemergence herbicidal evaluation; assay type: in vivo, Ambrosia artemisifolia; conditions: postemergence
# Method in brief: as §1
# ABUTH (Velvetleaf) [2] = test: Preemergence herbicidal evaluation; assay type: in vivo, Abutilon theophrasti; conditions: rated 4-5 weeks after treatment
# Method in brief: (§2)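 Scores use a 0–9 visual scale covering stand, vigor, malformation, size and chlorosis relative to controls, rated four to five weeks after treatment. Before emergence, soil-planted seeds were sprayed with compound in aqueous acetone at roughly 0.0156–0.500 kg/ha and held in the greenhouse.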
# [3] = tested on: SAGPY (Arrowhead (Pygmaea)); test: Preemergence weed control under flooded paddy conditions; assay type: in vivo, Sagittaria pygmaea; conditions: rated 3-4 weeks after treatment
# Method in brief: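 Herbicidal effect is scored visually on a 0-9 scale against an untreated control, three to four weeks after compounds are pipetted into the flood water (1.5 to 3 cm deep) over seeds planted in silt loam at 0.5 cm depth. Rates: about 0.0313 to 0.500 kg/ha.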
# SETVI (Foxtail, Green) [4] = test: Preemergence herbicidal evaluation; assay type: in vivo, Setaria viridis; conditions: rated 4-5 weeks after treatment
# Method in brief: as §2
# CASOB (Sicklepod) = test: Preemergence herbicidal evaluation; assay type: in vivo, Cassia obtusifolia; conditions: rated 4-5 weeks after treatment
# Method in brief: as §2
# ORYSAT (Rice, Tebonnet) = test: Postemergence herbicidal evaluation; assay type: in vivo, Oryza sativa, (L.) Tebonnet; conditions: postemergence
# Method in brief: as §1
# ABUTH (Velvetleaf) [5] = test: Postemergence herbicidal evaluation; assay type: in vivo, Abutilon theophrasti; conditions: postemergence
# Method in brief: as §1
# [6] = tested on: TRZAWR (Wheat, Winter, cv Riband); test: Postemergence herbicidal evaluation; assay type: in vivo, Triticum aestivum; conditions: postemergence
# Method in brief: as §1
# CYPIR (Rice Flatsedge) = test: Postemergence weed control under flooded paddy conditions; assay type: in vivo, Cyperus iria; conditions: postemergence weeds, rated 3 to 4 weeks after treatment
# Method in brief: (§3)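 Flood-water application, about 0.0313–0.500 kg/ha a.i. in aqueous/acetone 50/50 v/v; water depth 1.5–3 cm throughout. Weeds 3–5 cm, rice 1.5–2.5 leaf. Greenhouse; 0–9 visual rating vs control at 3–4 wk.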
# SETVI (Foxtail, Green) [7] = test: Postemergence herbicidal evaluation; assay type: in vivo, Setaria viridis; conditions: postemergence
# Method in brief: as §1
# ECHCG (Barnyardgrass) = test: Postemergence herbicidal evaluation; assay type: in vivo, Echinochloa crus-galli; conditions: postemergence
# Method in brief: as §1
# [8] = tested on: SAGPY (Arrowhead (Pygmaea)); test: Postemergence weed control under flooded paddy conditions; assay type: in vivo, Sagittaria pygmaea; conditions: postemergence weeds, rated 3 to 4 weeks after treatment
# Method in brief: as §3
smiles,measurement,setting,value
"COC(=O)C(Cc1ccc(Cl)cc1)N1C(=O)CSC1=Nc1cc(-n2c(=O)cc(C(F)(F)F)n(C)c2=O)c(F)cc1Cl (racemic) [Compound 77, Methyl α-(p-chlorobenzyl)-2-{{2-chloro-5-[3,6-dihydro-3-methyl-2,6-dioxo-4-(trifluoromethyl)-1(2H)-pyrimidinyl]-4-fluorophenyl}imino}-4-oxo-3-thiazolidineacetate, DL-]",GLXMAW herbicidal rating,[1]; rate 0.0158 kg/ha,3.5
same,GLXMAW herbicidal rating,[1]; rate 0.0315 kg/ha,5.0
same,GLXMAW herbicidal rating,[1]; rate 0.0630 kg/ha,5.0
same,AMBEL herbicidal rating,"AMBEL (Ragweed, Common); rate 0.0158 kg/ha",9.0
same,AMBEL herbicidal rating,"AMBEL (Ragweed, Common); rate 0.0315 kg/ha",9.0
same,AMBEL herbicidal rating,"AMBEL (Ragweed, Common); rate 0.0630 kg/ha",9.0
same,Preemergence herbicidal rating ABUTH,ABUTH (Velvetleaf) [2]; rate 0.0156 kg/ha,1.0
same,Preemergence herbicidal rating ABUTH,ABUTH (Velvetleaf) [2]; rate 0.0313 kg/ha,0.0
same,Preemergence herbicidal rating ABUTH,ABUTH (Velvetleaf) [2]; rate 0.0625 kg/ha,9.0
same,Preemergence herbicidal rating ABUTH,ABUTH (Velvetleaf) [2]; rate 0.1250 kg/ha,9.0
same,Preemergence herbicidal rating ABUTH,ABUTH (Velvetleaf) [2]; rate 0.2500 kg/ha,9.0
same,SAGPY herbicidal effect rating,[3]; 0.0313 kg/ha,0.0
same,SAGPY herbicidal effect rating,[3]; 0.0625 kg/ha,0.0
same,SAGPY herbicidal effect rating,[3]; 0.1250 kg/ha,0.0
same,SAGPY herbicidal effect rating,[3]; 0.2500 kg/ha,0.0
same,Preemergence herbicidal rating SETVI,"SETVI (Foxtail, Green) [4]; rate 0.0156 kg/ha",0.0
same,Preemergence herbicidal rating SETVI,"SETVI (Foxtail, Green) [4]; rate 0.0313 kg/ha",0.0
same,Preemergence herbicidal rating SETVI,"SETVI (Foxtail, Green) [4]; rate 0.0625 kg/ha",0.0
same,Preemergence herbicidal rating SETVI,"SETVI (Foxtail, Green) [4]; rate 0.1250 kg/ha",0.0
same,Preemergence herbicidal rating SETVI,"SETVI (Foxtail, Green) [4]; rate 0.2500 kg/ha",9.0
same,Preemergence herbicidal rating CASOB,CASOB (Sicklepod); rate 0.0156 kg/ha,0.0
same,Preemergence herbicidal rating CASOB,CASOB (Sicklepod); rate 0.0313 kg/ha,0.0
same,Preemergence herbicidal rating CASOB,CASOB (Sicklepod); rate 0.0625 kg/ha,0.0
same,Preemergence herbicidal rating CASOB,CASOB (Sicklepod); rate 0.1250 kg/ha,0.0
same,Preemergence herbicidal rating CASOB,CASOB (Sicklepod); rate 0.2500 kg/ha,0.0
same,ORYSAT herbicidal rating,"ORYSAT (Rice, Tebonnet); rate 0.0158 kg/ha",2.0
same,ORYSAT herbicidal rating,"ORYSAT (Rice, Tebonnet); rate 0.0315 kg/ha",2.0
same,ORYSAT herbicidal rating,"ORYSAT (Rice, Tebonnet); rate 0.0630 kg/ha",3.0
same,ABUTH herbicidal rating,ABUTH (Velvetleaf) [5]; rate 0.0158 kg/ha,9.0
same,ABUTH herbicidal rating,ABUTH (Velvetleaf) [5]; rate 0.0315 kg/ha,9.0
same,ABUTH herbicidal rating,ABUTH (Velvetleaf) [5]; rate 0.0630 kg/ha,9.0
same,TRZAWR herbicidal rating,[6]; rate 0.0158 kg/ha,3.0
same,TRZAWR herbicidal rating,[6]; rate 0.0315 kg/ha,2.5
same,TRZAWR herbicidal rating,[6]; rate 0.0630 kg/ha,3.0
same,Herbicidal rating CYPIR,CYPIR (Rice Flatsedge); Rate 0.0313 kg/ha,0.0
same,Herbicidal rating CYPIR,CYPIR (Rice Flatsedge); Rate 0.0625 kg/ha,0.0
same,Herbicidal rating CYPIR,CYPIR (Rice Flatsedge); Rate 0.1250 kg/ha,0.0
same,Herbicidal rating CYPIR,CYPIR (Rice Flatsedge); Rate 0.2500 kg/ha,0.0
same,SETVI herbicidal rating,"SETVI (Foxtail, Green) [7]; rate 0.0158 kg/ha",1.0
same,SETVI herbicidal rating,"SETVI (Foxtail, Green) [7]; rate 0.0315 kg/ha",6.0
same,SETVI herbicidal rating,"SETVI (Foxtail, Green) [7]; rate 0.0630 kg/ha",7.0
same,ECHCG herbicidal rating,ECHCG (Barnyardgrass); rate 0.0158 kg/ha,1.0
same,ECHCG herbicidal rating,ECHCG (Barnyardgrass); rate 0.0315 kg/ha,1.0
same,ECHCG herbicidal rating,ECHCG (Barnyardgrass); rate 0.0630 kg/ha,1.0
same,Herbicidal rating SAGPY,[8]; Rate 0.0313 kg/ha,0.0
same,Herbicidal rating SAGPY,[8]; Rate 0.0625 kg/ha,0.0
same,Herbicidal rating SAGPY,[8]; Rate 0.1250 kg/ha,0.0
same,Herbicidal rating SAGPY,[8]; Rate 0.2500 kg/ha,0.0
"CC(C)C[C@@H](C(=O)O)N1C(=O)CSC1=Nc1cc(-n2c(=O)cc(C(F)(F)F)n(C)c2=O)c(F)cc1Cl [Compound 71, α-Isobutyl-2-{{2-chloro-5-[3,6-dihydro-3-methyl-2,6-dioxo-4-(trifluoromethyl)-1(2H)-pyrimidinyl]-4-fluorophenyl}imino}-4-oxo-3-thiazolidineacetic acid, L-]",GLXMAW herbicidal rating,[1]; rate 0.0158 kg/ha,6.5
same,GLXMAW herbicidal rating,[1]; rate 0.0315 kg/ha,7.5
same,GLXMAW herbicidal rating,[1]; rate 0.0630 kg/ha,7.5
same,AMBEL herbicidal rating,"AMBEL (Ragweed, Common); rate 0.0158 kg/ha",9.0
same,AMBEL herbicidal rating,"AMBEL (Ragweed, Common); rate 0.0315 kg/ha",9.0
same,AMBEL herbicidal rating,"AMBEL (Ragweed, Common); rate 0.0630 kg/ha",9.0
same,Preemergence herbicidal rating ABUTH,ABUTH (Velvetleaf) [2]; rate 0.0156 kg/ha,1.0
same,Preemergence herbicidal rating ABUTH,ABUTH (Velvetleaf) [2]; rate 0.0313 kg/ha,9.0
same,Preemergence herbicidal rating ABUTH,ABUTH (Velvetleaf) [2]; rate 0.0625 kg/ha,9.0
same,Preemergence herbicidal rating ABUTH,ABUTH (Velvetleaf) [2]; rate 0.1250 kg/ha,9.0
same,Preemergence herbicidal rating ABUTH,ABUTH (Velvetleaf) [2]; rate 0.2500 kg/ha,9.0
same,SAGPY herbicidal effect rating,[3]; 0.1250 kg/ha,0.0
same,SAGPY herbicidal effect rating,[3]; 0.2500 kg/ha,0.0
same,Preemergence herbicidal rating SETVI,"SETVI (Foxtail, Green) [4]; rate 0.0156 kg/ha",0.0
same,Preemergence herbicidal rating SETVI,"SETVI (Foxtail, Green) [4]; rate 0.0313 kg/ha",0.0
same,Preemergence herbicidal rating SETVI,"SETVI (Foxtail, Green) [4]; rate 0.0625 kg/ha",0.0
same,Preemergence herbicidal rating SETVI,"SETVI (Foxtail, Green) [4]; rate 0.1250 kg/ha",4.0
same,Preemergence herbicidal rating SETVI,"SETVI (Foxtail, Green) [4]; rate 0.2500 kg/ha",9.0
same,Preemergence herbicidal rating CASOB,CASOB (Sicklepod); rate 0.0156 kg/ha,0.0
same,Preemergence herbicidal rating CASOB,CASOB (Sicklepod); rate 0.0313 kg/ha,0.0
same,Preemergence herbicidal rating CASOB,CASOB (Sicklepod); rate 0.0625 kg/ha,0.0
same,Preemergence herbicidal rating CASOB,CASOB (Sicklepod); rate 0.1250 kg/ha,7.0
same,Preemergence herbicidal rating CASOB,CASOB (Sicklepod); rate 0.2500 kg/ha,9.0
same,ORYSAT herbicidal rating,"ORYSAT (Rice, Tebonnet); rate 0.0158 kg/ha",3.0
same,ORYSAT herbicidal rating,"ORYSAT (Rice, Tebonnet); rate 0.0315 kg/ha",3.5
same,ORYSAT herbicidal rating,"ORYSAT (Rice, Tebonnet); rate 0.0630 kg/ha",4.5
same,ABUTH herbicidal rating,ABUTH (Velvetleaf) [5]; rate 0.0158 kg/ha,9.0
same,ABUTH herbicidal rating,ABUTH (Velvetleaf) [5]; rate 0.0315 kg/ha,9.0
same,ABUTH herbicidal rating,ABUTH (Velvetleaf) [5]; rate 0.0630 kg/ha,9.0
same,TRZAWR herbicidal rating,[6]; rate 0.0158 kg/ha,2.5
same,TRZAWR herbicidal rating,[6]; rate 0.0315 kg/ha,3.5
same,TRZAWR herbicidal rating,[6]; rate 0.0630 kg/ha,4.5
same,Herbicidal rating CYPIR,CYPIR (Rice Flatsedge); Rate 0.1250 kg/ha,3.0
same,Herbicidal rating CYPIR,CYPIR (Rice Flatsedge); Rate 0.2500 kg/ha,7.0
same,SETVI herbicidal rating,"SETVI (Foxtail, Green) [7]; rate 0.0158 kg/ha",4.0
same,SETVI herbicidal rating,"SETVI (Foxtail, Green) [7]; rate 0.0315 kg/ha",7.0
same,SETVI herbicidal rating,"SETVI (Foxtail, Green) [7]; rate 0.0630 kg/ha",9.0
same,ECHCG herbicidal rating,ECHCG (Barnyardgrass); rate 0.0158 kg/ha,4.0
same,ECHCG herbicidal rating,ECHCG (Barnyardgrass); rate 0.0315 kg/ha,4.0
same,ECHCG herbicidal rating,ECHCG (Barnyardgrass); rate 0.0630 kg/ha,4.0
same,Herbicidal rating SAGPY,[8]; Rate 0.1250 kg/ha,0.0
same,Herbicidal rating SAGPY,[8]; Rate 0.2500 kg/ha,0.0
